In one assay the test system is serotonin (5HT) levels. Nature of the assay: Serotonin (5HT) determination in brain tissue by HPLC with electrochemical detection. The assay is classed as in vivo, mice. Conditions: for 5HT: ng/g wet tissue +/− SEM; for 5HT levels in the hypothalamus vs. control / 5HT levels in the hippocampus vs. control: result in words. How it is done:
(§1) Solution of DHBA as internal standard in the concentration of: 1 μg/ml in 0.1M perchloric acid, were prepared. Standard solutions of NE and 5HT in the concentration of 1-0.1 μg/ml in 0.1M perchloric acid were prepared.
(§2) Tissues (hypothalamus and hippocampus) obtained from 6-8 mice were dissected on ice surface and kept at −80 C. Hypothalamus (HT) or hippocampus (HC) from 1 mice were weighted (weight of HT −10-20 mg, HC 30-40 mg) and placed in eppendorf micro-centrifuge tube, 1.5 ml. To each tube was added 120-160 μl of ice cold solution of Perchloric acid and DHBA, homogenized in ice bath on Sonics vibra cell, 3×20 sec., 0.4 watts and centrifuged at 14,000×g at 4° C. 10 min. Supernatant gained was stored in ice before analysis.
(§3) The HPLC system consisted of Jasco PU-980 pump, Jasco AS-950-10 autosampler cooled at 4° C., H3 ODS-125A 3 μm 125 mm×4.6 mm i.d. analytical column (Hichrom, UK) were used. Electrochemical detector Coulochem ESA 5100A with analytical cell model 5011 was used for control detector voltage and record the current. Working electrode was set at potential +350 mV. Control and data collection/processing were handled through Borwin chromatography software.
(§4) The mobile phase composition: A stock buffer was prepared as follows: 20 mM sodium dihydrogenorthophosphate, EDTA 3 mg/l, 1-heptanesulfonic acid 1 g/l were dissolved in 1 liter deionized distilled water and buffered to pH 3.7 using concentrated phosphoric acid. To prepare the mobile phase buffer was mixed with acetonitrile (Baker HPLC analyzed) in the ratio 85:15 (v/v), filtered through a 0.2 μm membrane filter and degassed under vacuum after mixing. Mobile phase flow rate 1 ml/min. Injection volume 20 μl, retention time for DHBA 4.2 min., norepinephrine—3.1 min., 5HT 8.6 min. For calibration curve 1 ug/ml solution of DHBA together with 1.0-0.1 μg/ml solutions of 5HT and NE were used. The ratio between 5HT or NE and DHBA used to calculate the level of 5HT and NE in the sample. Date are given in ng/g wet tissue +/−SEM.

Assay [1] has as its system Norepinephrine (NE) levels. The assay can be described thus: Norepinephrine (NE) determination in brain tissue by HPLC with electrochemical detection. The assay is classed as in vivo, mice. Conditions: for NE: ng/g wet tissue +/− SEM; for norepinephrine levels in the hippocampus vs. control / norepinephrine levels in the hypothalamus vs. control: result in words. The protocol: as §1, §2, §3, §4

Assay [2] in a line: Forced Swim Test (FST), separated BALB/c mice. The settings on record: compounds 1 mg/kg i.p., imipramine 10 mg/kg i.p.; day 8; in relation to vehicle. The class given is in vivo. The protocol: Forced swim test (FST): The animal is placed in a circular, transparent, plexiglass tank measuring 21 cm in diameter and 46 cm in height containing water 15 cm high, maintained at 23-25° C. […] Also measured is the latency period, the time elapsing, for each animal from immersion in the water tank until the first occurrence of immobility. Since climbing activity is minimal in mice, […].
50, 2 month old female BALB/c mice, 10 mice per group, on ad libitum diet were separated (each mouse in a different cage) for 9 days (Separation Stress, a model for depression). On the 7, 8, 9, 34-40 days mice were administered with either vehicle or compounds x, 12 and 15 (1 mg/kg i.p.) or imipramine 10 mg/kg (antidepressant) i.p. and tested in the forced swim test (FST) on day 8.

Assay [3] can be described thus: Tail Suspension Test, separated BALB/c mice (model for depression). Conditions: compounds 1 mg/kg i.p., imipramine 10 mg/kg i.p.; day 7; in relation to vehicle. The class given is in vivo. From the text: Tail suspension test (TST): Animals are suspended upside down by adhesive tape placed 1 cm from the tail tip. The elevation of the animal is 50 cm from the nearest surface. […] Statistical analysis compares the magnitude of immobility (in seconds) between different treatment groups. In this test, antidepressants characteristically cause an increase of the time fraction spent by the animal as active at the expense of the inactivity period.
50, 2 month old female BALB/c mice were separated (each mouse in a different cage) for 9 days period (a model for depression). On days 7, 8, 9, 34-40 mice were administered with either vehicle or compounds X, 12 and 15 (1 mg/kg i.p.) or imipramine 10 mg/kg (anti-depressant) i.p. and tested in the Tail suspension test on day 7 of the experiment (10 mice per group).

The nature of assay [4]: Eight Arm Maze Test, separated BALB/c mice. The assay is classed as in vivo. The settings on record: compounds 1 mg/kg i.p., imipramine 10 mg/kg i.p.; day 34-38; in relation to vehicle (p<0.05). How it is done: 2 month old female BALB/c mice 10 mice per group were separated (each mouse in a different cage) for 9 days (a model for depression). On days 7, 8, 9, 34-40 days mice were administered with either vehicle or compounds X, 12 and 15 (1 mg/kg i.p.) or imipramine 10 mg/kg (anti-depressant) i.p. and tested in the Eight Arm Maze from day 34-38.

“Also recorded” adds a separate entry of the source.

As to `CCCCCCCC/C=C\CCCCCCCC(=O)N[C@@H](CO)C(C)C` [Compound 11, Oleoyl-D-Valinol], the “5HT” value with serotonin (5HT) levels (Hypothalamus) was found to be 777.8 ± 79.1 ng/g. Moreover, the “5HT levels in the hypothalamus vs. control” value in the assay with serotonin (5HT) levels is listed as “increased significantly”.
Turning to “Oleylamino-D-2-hydroxyvaline amide [Compound 19]”, the “5HT” value with serotonin (5HT) levels (Hippocampus) worked out at 296.3 ± 33.2 ng/g. Moreover, the “5HT levels in the hippocampus vs. control” value in the assay on serotonin (5HT) levels is “significantly enhanced; also recorded: increased significantly”. Besides, the “NE” value in assay [1] (Hippocampus) worked out at 296.4 ± 24.8 ng/g. Also, in assay [1], the “norepinephrine levels in the hippocampus vs. control” value is reported as “significantly enhanced; also recorded: increase significantly”.
With `CN(C)CCCN1c2ccccc2CCc2ccccc21` [imipramine, reference compound], in assay [2], the “swimming activity in forced swim test” value is “significantly enhanced swimming activity”. The “activity in Tail Suspension Test” value in assay [3] is given as “significantly enhanced activity”. For the same molecule, the “performance in the Eight Arm Maze” value in assay [4] is “significantly improved performance”.
Turning to `CCCCCCCC/C=C/CCCCCCCC(=O)N[C@H](CO)C(C)C` [Compound 7, Elaidoyl-L-Valinol amide], the “5HT” value with serotonin (5HT) levels (Hippocampus) came to 335.4 ± 45.4 ng/g; in the assay on serotonin (5HT) levels (Hypothalamus) it was 856.5 ± 115.2 ng/g. Further, the “5HT levels in the hippocampus vs. control” value with serotonin (5HT) levels is recorded as “increased significantly”. Also, the “5HT levels in the hypothalamus vs. control” value with serotonin (5HT) levels is “increased significantly”.
Take `CCCCCCCC/C=C\CCCCCCCC(=O)N[C@H](CO)CC(C)C` [Compound 5, Oleoyl-L-Leucinol amide]: the “5HT” value in the assay with serotonin (5HT) levels (Hippocampus) stood at 419.8 ± 67.4 ng/g; in the assay on serotonin (5HT) levels (Hypothalamus), 767.2 ± 51.9 ng/g. Also, in the assay on serotonin (5HT) levels, the “5HT levels in the hippocampus vs. control” value was “increased significantly”.
For `CCCCCCCC/C=C\CCCCCCCCOC(=O)N[C@@H](CO)C(C)C` [Compound 13, Oleyloxycarbonyl-D-Valinol amide], the “5HT” value is 300.1 ± 41.5 ng/g in the assay on serotonin (5HT) levels (Hippocampus) and 831.3 ± 29.1 ng/g in the assay on serotonin (5HT) levels (Hypothalamus). The “5HT levels in the hippocampus vs. control” value in the assay with serotonin (5HT) levels is on record as “significantly enhanced; also recorded: increased significantly”. Also, the “5HT levels in the hypothalamus vs. control” value with serotonin (5HT) levels is on record as “increased significantly”. For the same molecule, the “NE” value was 396.7 ± 44.7 ng/g in assay [1] (Hippocampus) and 1002 ± 62.7 ng/g in assay [1] (Hypothalamus). Further, in assay [1], the “norepinephrine levels in the hippocampus vs. control” value is “significantly enhanced; also recorded: increase significantly”.
Turning to “Oleyl-amine-carbonyl-D-valinol [Compound 14]”, the “5HT” value was found to be 344 ± 32.4 ng/g in the assay with serotonin (5HT) levels (Hippocampus) and 876.4 ± 126.8 ng/g in the assay with serotonin (5HT) levels (Hypothalamus). Further, the “5HT levels in the hippocampus vs. control” value in the assay on serotonin (5HT) levels is on record as “increased significantly”; in the assay on serotonin (5HT) levels (listed as compound 14), “significantly enhanced”. The “5HT levels in the hypothalamus vs. control” value in the assay with serotonin (5HT) levels is “increased significantly”; in the assay with serotonin (5HT) levels (listed as compound 14) it was “significantly enhanced”. For the same molecule, the “NE” value is 313.9 ± 48 ng/g in assay [1] (Hippocampus) and 1139.4 ± 43.3 ng/g in assay [1] (Hypothalamus). Besides, the “norepinephrine levels in the hippocampus vs. control” value in assay [1] is given as “increase significantly”; in assay [1] (listed as compound 14), “significantly enhanced”. Further, the figures for the “norepinephrine levels in the hypothalamus vs. control” value in assay [1] and in assay [1] (listed as compound 14) were “increased significantly” and “significantly enhanced”, respectively.
Take `CCCCC/C=C\C/C=C\CCCCCCCC(=O)N[C@H](CO)C(C)C` [Compound 10, Linoleoyl-L-Valinol amide]: in the assay with serotonin (5HT) levels (Hippocampus), the “5HT” value came out at 299.2 ± 22.8 ng/g. Also, the “5HT levels in the hippocampus vs. control” value with serotonin (5HT) levels is given as “significantly enhanced; also recorded: increased significantly”. Moreover, the “NE” value in assay [1] (Hippocampus) amounted to 407.9 ± 48.9 ng/g. Further, the “norepinephrine levels in the hippocampus vs. control” value in assay [1] is “significantly enhanced; also recorded: increase significantly”.
With `CCCCCCCC/C=C\CCCCCCCC(=O)N[C@H](CO)Cc1ccccc1` [Compound 26, Oleoyl-L-phenyl alaninol], the “norepinephrine levels in the hippocampus vs. control” value in assay [1] is on record as “increase significantly”.
On to `CCCCC/C=C\C/C=C\CCCCCCCC(=O)N[C@H](CO)CC(C)C` [Compound 4, Linoleoyl-L-Leucinol amide], for which the “5HT” value in the assay with serotonin (5HT) levels (Hippocampus) was 380.4 ± 12.8 ng/g. Also, the “5HT levels in the hippocampus vs. control” value in the assay with serotonin (5HT) levels is given as “significantly enhanced; also recorded: increased significantly”. Also, in assay [1] (Hippocampus), the “NE” value amounted to 302.5 ± 22.4 ng/g. In addition, the “norepinephrine levels in the hippocampus vs. control” value in assay [1] was “significantly enhanced; also recorded: increase significantly”.

Values taken from US20150202179A1, “FATTY ACID DERIVATIVES FOR USE IN A METHOD OF TREATING DEPRESSION AND ASSOCIATED CONDITIONS” (YISSUM RESEARCH DEVELOPMENT COMPANY OF THE HEBREW …, priority 2012, published 2015).
